Experiment in all cases: membrane-coated bead recruitment, confocal fluorescence, single-site fit
What all share (assay type): binding
What all share (conditions): apparent affinity in protein concentration; 5 mol% PI(4,5)P2, 85% POPC, 10% phosphatidylserine on silica beads; room temperature, 30 min; 20 mM HEPES, 150 mM NaCl; read-out: KD,relative

The target of test [1] is T1, exocyst subcomplex-1 (Exoc1:2:3:4) (Homo sapiens, UniProt Q9NV70).
T1 construct: Sf9 baculovirus; heterotetramer; 6xHis-mNeonGreen-Exoc4 (tag kept), 6xHis-MBP on Exoc1 cut with HRV3C, Exoc2 and Exoc3 untagged; PH domain of Exoc1 is the known PI(4,5)P2 site; with Exocyst complex component 2; Exocyst complex component 3; Exocyst complex component 4
T1 sequence (Q9NV70 whole entry, the tested form may be a part): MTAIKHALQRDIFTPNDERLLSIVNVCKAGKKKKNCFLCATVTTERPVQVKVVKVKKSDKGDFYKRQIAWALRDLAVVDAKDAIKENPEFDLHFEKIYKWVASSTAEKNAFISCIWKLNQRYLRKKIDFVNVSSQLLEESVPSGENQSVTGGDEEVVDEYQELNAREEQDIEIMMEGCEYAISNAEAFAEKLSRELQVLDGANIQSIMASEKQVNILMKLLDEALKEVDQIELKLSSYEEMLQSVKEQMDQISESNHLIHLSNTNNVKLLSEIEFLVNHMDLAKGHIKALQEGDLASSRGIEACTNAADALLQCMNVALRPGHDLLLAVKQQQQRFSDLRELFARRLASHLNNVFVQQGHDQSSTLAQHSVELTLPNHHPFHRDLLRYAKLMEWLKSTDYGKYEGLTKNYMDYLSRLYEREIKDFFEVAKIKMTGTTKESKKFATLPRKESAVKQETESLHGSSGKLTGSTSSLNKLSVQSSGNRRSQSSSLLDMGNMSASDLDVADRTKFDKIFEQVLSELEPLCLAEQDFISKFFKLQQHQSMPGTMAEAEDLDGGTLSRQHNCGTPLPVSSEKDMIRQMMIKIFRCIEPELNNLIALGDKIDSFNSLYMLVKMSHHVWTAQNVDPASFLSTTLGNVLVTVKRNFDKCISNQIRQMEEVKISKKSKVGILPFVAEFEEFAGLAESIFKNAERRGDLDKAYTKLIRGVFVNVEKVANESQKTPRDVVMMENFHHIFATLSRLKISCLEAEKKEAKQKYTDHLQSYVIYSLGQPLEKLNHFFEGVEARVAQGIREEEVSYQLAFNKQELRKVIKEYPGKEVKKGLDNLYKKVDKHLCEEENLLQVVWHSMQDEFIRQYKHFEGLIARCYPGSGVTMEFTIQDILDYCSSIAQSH
T1 sequence (Q96KP1 whole entry partner, the tested form may be a part): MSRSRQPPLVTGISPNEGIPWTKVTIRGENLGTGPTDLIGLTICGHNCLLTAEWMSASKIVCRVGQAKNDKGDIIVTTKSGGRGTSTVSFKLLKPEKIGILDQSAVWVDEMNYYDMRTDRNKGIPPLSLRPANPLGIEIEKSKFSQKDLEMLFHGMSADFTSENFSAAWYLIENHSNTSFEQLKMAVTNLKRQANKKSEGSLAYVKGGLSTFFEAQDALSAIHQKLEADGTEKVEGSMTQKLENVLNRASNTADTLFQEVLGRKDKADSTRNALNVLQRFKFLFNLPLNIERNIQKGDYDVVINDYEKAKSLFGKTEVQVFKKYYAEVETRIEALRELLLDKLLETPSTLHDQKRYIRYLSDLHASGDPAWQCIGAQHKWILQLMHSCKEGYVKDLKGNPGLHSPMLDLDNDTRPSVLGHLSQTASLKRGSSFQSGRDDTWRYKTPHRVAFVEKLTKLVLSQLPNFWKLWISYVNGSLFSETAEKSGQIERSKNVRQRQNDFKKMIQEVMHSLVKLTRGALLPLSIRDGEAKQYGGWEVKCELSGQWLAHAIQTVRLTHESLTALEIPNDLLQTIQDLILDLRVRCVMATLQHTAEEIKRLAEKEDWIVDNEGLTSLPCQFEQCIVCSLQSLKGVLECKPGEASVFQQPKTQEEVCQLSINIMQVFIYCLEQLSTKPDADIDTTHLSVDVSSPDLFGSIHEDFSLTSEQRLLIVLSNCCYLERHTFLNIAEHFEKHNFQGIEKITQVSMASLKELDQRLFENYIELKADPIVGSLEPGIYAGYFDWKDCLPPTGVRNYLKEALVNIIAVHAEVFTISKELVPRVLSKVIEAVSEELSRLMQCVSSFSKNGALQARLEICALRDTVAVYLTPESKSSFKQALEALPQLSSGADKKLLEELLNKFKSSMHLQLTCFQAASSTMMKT
T1 sequence (O60645 whole entry partner, the tested form may be a part): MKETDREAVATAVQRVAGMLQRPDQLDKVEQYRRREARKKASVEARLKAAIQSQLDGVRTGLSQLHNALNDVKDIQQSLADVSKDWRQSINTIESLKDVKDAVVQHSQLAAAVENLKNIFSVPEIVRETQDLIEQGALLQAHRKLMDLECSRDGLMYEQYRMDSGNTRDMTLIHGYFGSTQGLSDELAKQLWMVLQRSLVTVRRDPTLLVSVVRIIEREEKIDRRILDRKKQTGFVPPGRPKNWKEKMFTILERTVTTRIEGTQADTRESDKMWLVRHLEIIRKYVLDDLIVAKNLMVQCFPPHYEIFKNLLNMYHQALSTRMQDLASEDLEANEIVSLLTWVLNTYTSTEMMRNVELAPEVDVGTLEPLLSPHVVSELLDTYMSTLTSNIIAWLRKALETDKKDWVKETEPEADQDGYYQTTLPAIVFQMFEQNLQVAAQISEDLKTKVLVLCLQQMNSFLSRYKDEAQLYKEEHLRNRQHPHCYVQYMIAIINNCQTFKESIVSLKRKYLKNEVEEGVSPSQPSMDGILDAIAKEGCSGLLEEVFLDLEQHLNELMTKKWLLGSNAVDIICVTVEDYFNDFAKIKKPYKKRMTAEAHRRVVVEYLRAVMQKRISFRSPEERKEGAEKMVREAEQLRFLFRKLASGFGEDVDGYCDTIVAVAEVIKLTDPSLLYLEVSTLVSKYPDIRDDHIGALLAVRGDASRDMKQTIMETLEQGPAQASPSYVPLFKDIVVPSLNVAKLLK
T1 sequence (Q96A65 2-974 partner): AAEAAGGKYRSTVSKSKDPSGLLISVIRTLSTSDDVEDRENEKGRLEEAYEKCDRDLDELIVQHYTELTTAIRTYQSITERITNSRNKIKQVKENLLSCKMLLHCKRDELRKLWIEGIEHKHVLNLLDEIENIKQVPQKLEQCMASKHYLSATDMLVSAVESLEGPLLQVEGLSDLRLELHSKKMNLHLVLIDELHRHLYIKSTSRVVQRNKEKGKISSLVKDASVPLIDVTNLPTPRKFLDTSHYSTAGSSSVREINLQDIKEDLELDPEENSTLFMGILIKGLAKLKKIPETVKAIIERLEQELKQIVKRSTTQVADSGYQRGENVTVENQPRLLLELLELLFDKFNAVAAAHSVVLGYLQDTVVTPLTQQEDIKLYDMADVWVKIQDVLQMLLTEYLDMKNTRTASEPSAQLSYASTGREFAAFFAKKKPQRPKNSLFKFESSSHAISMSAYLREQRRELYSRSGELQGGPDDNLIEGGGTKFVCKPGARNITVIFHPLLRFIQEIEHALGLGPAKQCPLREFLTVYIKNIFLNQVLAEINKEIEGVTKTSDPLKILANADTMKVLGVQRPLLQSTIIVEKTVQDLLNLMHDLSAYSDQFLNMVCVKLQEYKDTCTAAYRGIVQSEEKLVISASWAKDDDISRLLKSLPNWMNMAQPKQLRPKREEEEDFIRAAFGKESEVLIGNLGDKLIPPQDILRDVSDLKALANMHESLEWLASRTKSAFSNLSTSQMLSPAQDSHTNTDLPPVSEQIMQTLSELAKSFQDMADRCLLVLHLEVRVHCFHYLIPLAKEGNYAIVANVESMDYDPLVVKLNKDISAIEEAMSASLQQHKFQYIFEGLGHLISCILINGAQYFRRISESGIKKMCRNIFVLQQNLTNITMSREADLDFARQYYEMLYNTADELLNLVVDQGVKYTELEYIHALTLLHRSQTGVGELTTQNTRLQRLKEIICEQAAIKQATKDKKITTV

The target of test [2] is T2, exocyst holocomplex (Homo sapiens, UniProt Q9NV70+Q9UPT5).
T2 construct: gene EXOC1; Sf9 baculovirus; hetero-octamer; 6xHis-mNeonGreen-Exoc6 (tag kept), 6xHis-MBP on Exoc5 cut with HRV3C, other subunits untagged; with Exocyst complex component 2; Exocyst complex component 3; Exocyst complex component 4; Exocyst complex component 5; Exocyst complex component 6; Exocyst complex component 8

Test [3] addresses T3, exocyst subcomplex-2 (Exoc5:6:7:8) (Homo sapiens, UniProt Q9UPT5).
T3 construct: gene EXOC7; Sf9 baculovirus; heterotetramer; with Exocyst complex component 5; Exocyst complex component 6; Exocyst complex component 8

`CCCCCCCCCCCCCCCC(=O)OC[C@H](COP(=O)(O)O[C@@H]1[C@H](O)[C@H](O)[C@@H](OP(=O)(O)O)[C@H](OP(=O)(O)O)[C@H]1O)OC(=O)CCCCCCCCCCCCCCC` [PI(4,5)P2]: the Kd turned out to be 36.1 nM in test [1], 99.4 nM in test [2] and 38.5 nM in test [3].
